Laboratory results from patent publication US20250195670A1, “METFORMIN NANOFORMULATIONS AND METHODS OF USE THEREOF” (priority 2022, published 2025).

Columns and labels:
[1] = in vivo; cited from earlier work
Ln229 cells = test: Ln229 cell growth (optical density); type: cell-based; details: Homo sapiens, LN-229
Protocol: FIGS. 3A-3D provide graphs of Ln229 growth at the indicated concentrations of metformin (FIG. 3A), PAMAM-OH (FIG. 3B), PAMAM-OH and metformin (FIG. 3C), and P4-MET (FIG. 3D).
The ability of the dendrimers was also tested for their ability to deliver metformin to Ln229 cells, a human glioblastoma cell line sensitive to metformin. Specifically, Ln229 cells were exposed to metformin, PAMAM-OH, PAMAM-OH with metformin, or P4-MET.

[2] = tested on: bone marrow-derived macrophages (BMDM); test: BMDM growth (optical density); type: cell-based; details: Mus musculus; BMDM cells, 72 hours
Protocol: FIGS. 5A-5D provide graphs of bone marrow-derived macrophages (BMDM) growth at the indicated concentrations of metformin (FIG. 5A), PAMAM-OH (FIG. 5B), PAMAM-OH and metformin (FIG. 5C), and P4-MET (FIG. 5D).
The ability of the dendrimers was also tested for their ability to deliver metformin to bone marrow-derived macrophages (BMDM). Specifically, BMDM cells were exposed to metformin, PAMAM-OH, PAMAM-OH with metformin, or P4-MET for 72 hours.

Panc-1 cells = test: Panc-1 cell growth (optical density); type: cell-based; details: Homo sapiens
Protocol: The ability of the dendrimers was also tested for their ability to deliver metformin to Panc-1 cells, a human pancreatic cancer cell line. Specifically, Panc-1 cells were exposed to metformin, PAMAM-OH, and P4-MET.

[3] = oral metformin; cited from earlier work
UNKPC cells = test: UNKPC cell growth (optical density); type: cell-based
Protocol: The ability of the dendrimers was also tested for their ability to deliver metformin to UNKPC cells, a pancreatic cancer cell line. Specifically, […] were exposed to metformin, PAMAM-OH, or P4-MET.

MGPP3 cells = test: MGPP3 cell growth (optical density); type: cell-based; details: Mus musculus
Protocol: FIGS. 4A-4D provide graphs of MGPP3 growth at the indicated concentrations of metformin (FIG. 4A), PAMAM-OH (FIG. 4B), PAMAM-OH and metformin (FIG. 4C), and P4-MET (FIG. 4D).
The ability of the dendrimers was also tested for their ability to deliver metformin to MGPP3 cells, a mouse glioblastoma cell line sensitive to metformin. Specifically, MGPP3 cells were exposed to metformin, PAMAM-OH, PAMAM-OH with metformin, or P4-MET.

U87MG cells = test: U87MG cell growth (optical density); type: cell-based; details: Homo sapiens, U-87 MG
Protocol: FIGS. 2A-2D provide graphs of U87MG growth at the indicated concentrations of metformin (FIG. 2A), PAMAM-OH (FIG. 2B), PAMAM-OH and metformin (FIG. 2C), and P4-MET (FIG. 2D).
The ability of the dendrimers was tested for their ability to deliver metformin to U87MG cells, a human glioma cell line sensitive to metformin. Specifically, U87MG cells were exposed to metformin, PAMAM-OH, PAMAM-OH with metformin, or P4-MET.

cell cultures = details: cited from earlier work

IC50 (Panc-1 cells): 5.24 mM | IC50 (U87MG cells): 14.4 mM
Compound: CN(C)C(=N)NC(=N)N [metformin, 1,1-dimethylbiguanide]
gastrointestinal-related side effects, share of patients [1]: 20-30% | IC50 (Ln229 cells): 0.99 mM | IC50 [2]: 3.53 mM | pharmacological concentrations in patients [3]: less than 50 μM | IC50 (UNKPC cells): 1.64 mM | IC50 (MGPP3 cells): 12.5 mM | typical effective concentration in cell cultures (cell cultures): in the mM range
